Measured values from publication PMC8815882, “Screening the pandemic response box identified benzimidazole carbamates, Olorofim and ravuconazole as promising drug candidates for the treatment of eumycetoma” (PLoS Neglected Tropical Diseases, 2022).
Read-outs that look alike come from different tables or passages of the source.

Tested on: M. mycetomatis genome strain MM55
Test: CLSI M38-A2 based in vitro susceptibility screening (XTT or resazurin), growth at fixed concentration
Assay type: cell-based, Madurella mycetomatis
Details: Madurella mycetomatis; for Percent fungal survival at 100 µM: read-out: Percentage survival at 100um, 100 uM A (second replicate column)
[1] = mean of three replicates, read-out: Percentage survival at 25um, 25 uM mean
[2] = replicate A, read-out: Percentage survival at 25um, 25 um A
[3] = replicate B, read-out: Percentage survival at 25um, 25 uM B
[4] = replicate C, read-out: Percentage survival at 25um, 25 uM C
[5] = mean of three replicates, read-out: Percentage survival at 100um, 100 uM mean
[6] = replicate 1, read-out: Percentage survival at 100um, 100 uM A (first replicate column)
[7] = replicate 3, read-out: Percentage survival at 100um, 100 uM A (third replicate column)
[8] = mean of three, M. mycetomatis MM55, read-out: Percentage survival at 25um, 25 uM mean
[9] = replicate A, M. mycetomatis MM55, read-out: Percentage survival at 25um, 25 um A
[10] = replicate B, M. mycetomatis MM55, read-out: Percentage survival at 25um, 25 uM B
[11] = replicate C, M. mycetomatis MM55, read-out: Percentage survival at 25um, 25 uM C
[12] = mean of three, M. mycetomatis MM55, read-out: Percentage survival at 100um, 100 uM mean
[13] = replicate 1, M. mycetomatis MM55, read-out: Percentage survival at 100um, 100 uM A (first replicate column)
[14] = replicate 2, M. mycetomatis MM55
[15] = replicate 3, M. mycetomatis MM55, read-out: Percentage survival at 100um, 100 uM A (third replicate column)
[16] = mean, read-out: Percentage survival at 25um, 25 uM mean
[17] = mean, read-out: Percentage survival at 100um, 100 uM mean
[18] = replicate (first column), read-out: Percentage survival at 100um, 100 uM A
[19] = replicate (second column), read-out: Percentage survival at 100um, 100 uM A
[20] = replicate (third column), read-out: Percentage survival at 100um, 100 uM A
[21] = mean of replicates, read-out: Percentage survival at 25um, 25 uM mean
[22] = mean of replicates, read-out: Percentage survival at 100um, 100 uM mean
[23] = replicate 1, read-out: Percentage survival at 100um, 100 uM A
[24] = replicate 2, read-out: Percentage survival at 100um, 100 uM A
[25] = replicate 3, read-out: Percentage survival at 100um, 100 uM A

SMILES | activity at 25 µM [1] [%] | activity at 25 µM [2] [%] | activity at 25 µM [3] [%] | activity at 25 µM [4] [%] | activity at 100 µM [5] [%] | activity at 100 µM [6] [%] | Percent fungal survival at 100 µM (replicate 2) [%] | activity at 100 µM [7] [%] | also measured
CCc1nc(N)nc(N)c1C#CCc1ccccc1 [MMV1581549] | 92.3 | 59.8 | 78.6 | 138 | 2.68 | 1.33 | 1.24 | 5.46 | –
OC1O[C@H](CSc2ccc(F)cc2)[C@@H](O)[C@H]1O (stereo partly shown) [MMV1581550] | – | – | – | – | – | – | – | – | activity at 25 µM [8]: 91%; activity at 25 µM [9]: 97.5%; activity at 25 µM [10]: 90.1%; activity at 25 µM [11]: 85.4%; activity at 100 µM [12]: 85.6%; activity at 100 µM [13]: 80.9%; Percent fungal survival at 100 µM [14]: 92.1%; activity at 100 µM [15]: 83.9%
c1ccc(-c2nnc3c4ccccc4c(N4CCNCC4)nn23)cc1 [MMV1581551] | – | 93.2 | 85.9 | 74.8 | – | – | – | – | activity at 25 µM [16]: 84.6%; activity at 100 µM [17]: 37%; activity at 100 µM [18]: 10.9%; activity at 100 µM [19]: 52.3%; activity at 100 µM [20]: 47.9%
O=C(Nc1ccccc1)N(Cc1cc(Br)ccc1O)c1ccc(F)cc1 [MMV1581552] | – | – | – | – | – | – | – | – | activity at 25 µM [8]: 51.3%; activity at 25 µM [9]: 32.5%; activity at 25 µM [10]: 58.2%; activity at 25 µM [11]: 63.3%; activity at 100 µM [12]: 11.5%; activity at 100 µM [13]: 1.56%; Percent fungal survival at 100 µM [14]: 8.53%; activity at 100 µM [15]: 24.3%
COc1ccc2c(c1)cc(CNC(=O)c1cc3ccccc3o1)n2CC(=O)O [MMV1581553] | – | 87.4 | 70.5 | 72.3 | – | – | – | – | activity at 25 µM [16]: 76.7%; activity at 100 µM [17]: 88.6%; activity at 100 µM [18]: 90%; activity at 100 µM [19]: 85%; activity at 100 µM [20]: 90.9%
Nc1cc(N)c2nc(-c3ccccc3)c(Nc3ccc(F)cc3)nc2c1 [MMV1581554] | – | – | – | – | – | – | – | – | activity at 25 µM [8]: 92.5%; activity at 25 µM [9]: 97.1%; activity at 25 µM [10]: 91.3%; activity at 25 µM [11]: 89.3%; activity at 100 µM [12]: 89.9%; activity at 100 µM [13]: 116%; Percent fungal survival at 100 µM [14]: 80.3%; activity at 100 µM [15]: 73.1%
Nc1cccc(-c2nc(N)nc(NC3Cc4ccccc4C3)n2)c1 [MMV1581555] | – | 98.9 | 85.3 | 73.8 | – | – | – | – | activity at 25 µM [21]: 86%; activity at 100 µM [22]: 85.5%; activity at 100 µM [23]: 81.1%; activity at 100 µM [24]: 89%; activity at 100 µM [25]: 86.6%
NC(=O)c1[nH]c2ccc(S(N)(=O)=O)cc2c1-c1ccccc1 [MMV1581556] | 72.4 | 70.3 | 68.8 | 78.1 | 70.1 | 77.5 | 68 | 64.9 | –
O=C(N[C@H](CCS)C(=O)N[C@H](Cc1ccccc1)C(=O)O)c1cc2ccccc2[nH]1 [MMV1581557] | – | 88.1 | 98.1 | 70 | – | – | – | – | activity at 25 µM [21]: 85.4%; activity at 100 µM [22]: 83.1%; activity at 100 µM [23]: 82.1%; activity at 100 µM [24]: 85.3%; activity at 100 µM [25]: 81.8%
Cc1cccc(C)c1C(=O)Nc1nc(-c2ccccn2)cc2ccccc12 [MMV1581558] | 77.1 | 65 | 114 | 52.4 | 86 | 76.1 | 64.3 | 118 | –
CC(C)Cn1c(=O)n(C)c(=O)c2c(-c3cncn3C)n(Cc3cccc4ccccc34)nc21 [MMV1581559] | 58.5 | 82.8 | 69.9 | 22.7 | 3.57 | 1.05 | 5.73 | 3.94 | –
